Legend:
Type in all cases: in vivo
Botrytis cinerea = experiment: Test E: tomato Botrytis control on tomato seedlings; conditions: 250 ppm, 100 = 100% disease control, 0 = no control
[1] = tested on: Erysiphe graminis f. sp. tritici; experiment: Test G: wheat powdery mildew control on wheat seedlings; conditions: 250 ppm, 100 = 100% disease control, 0 = no control
Zymoseptoria tritici = experiment: Test C: wheat leaf blotch control on wheat seedlings; conditions: 250 ppm, wheat seedlings, 100 = 100% disease control, 0 = no control
[2] = tested on: Puccinia recondita f. sp. tritici; experiment: Test B: wheat leaf rust control on wheat seedlings; conditions: 250 ppm; wheat seedlings; 100 = 100% disease control, 0 = no control
Plasmopara viticola = experiment: Test D: grape downy mildew control on grape seedlings; conditions: 250 ppm, 100 = 100% disease control, 0 = no control
Phakopsora pachyrhizi = experiment: Test A: Asian soybean rust control on soybean seedlings; conditions: 250 ppm, soybean seedlings, 100 = 100% disease control, 0 = no control
Phytophthora infestans = experiment: whole plant or invertebrate; conditions: tomato seedlings, 100 = 100% disease control, 0 = no control; for Test F disease control rating: 250 ppm

Row | SMILES | Test E disease control rating (Botrytis cinerea) | Test G disease control rating [1] | Test C disease control rating (Zymoseptoria tritici) | Test B disease control rating [2] | Test D disease control rating (Plasmopara viticola) | Test A disease control rating (Phakopsora pachyrhizi) | Test F disease control rating (Phytophthora infestans) | pest or weed control at 250 ppm (Botrytis cinerea; Botrytis cinerea, read-out: Test E disease control rating) | pest or weed control at 250 ppm ([1]; Blumeria graminis, read-out: Test G disease control rating) | pest or weed control at 250 ppm (Zymoseptoria tritici; Zymoseptoria tritici, read-out: Test C disease control rating) | pest or weed control at 250 ppm (Plasmopara viticola; Plasmopara viticola, read-out: Test D disease control rating) | pest or weed control at 250 ppm (Phakopsora pachyrhizi; Phakopsora pachyrhizi, read-out: Test A disease control rating) | pest or weed control at 250 ppm (Phytophthora infestans; Phytophthora infestans, in Solanum lycopersicum, read-out: Test F disease control rating, 250 ppm)
1 | COc1ccnc(C(=O)NC(C)C(=O)OC(C)C2CC(C)(C)CC(C)(C)C2)c1OC(C)=O (mixture of isomers) [Compound 171] | 0% | 0% | 80% | 100% | 49% | 100% | 53% | – | – | – | – | – | –
2 | CCC(OC(=O)[C@H](C)NC(=O)c1nccc(OC)c1OCOC(C)=O)c1ccc(C2CCCCC2)cc1 (single isomer, unassigned) [Compound 134] | 0% | 0% | 64% | 74% | 33% | 97% | 0% | – | – | – | – | – | –
3 | COc1ccnc(C(=O)NC(C)C(=O)OC(C)C2CCCCC2)c1O (mixture of isomers) [Compound 126] | 0% | 0% | 10% | 0% | 3% | 0% | 0% | – | – | – | – | – | –
4 | COc1ccnc(C(=O)N[C@@H](C)C(=O)OC(C)c2ccc(C(C)(C)C)cc2)c1O (some centres unmarked) [Compound 123] | 0% | 0% | 84% | 100% | 57% | 100% | 24% | – | – | – | – | – | –
5 | COc1ccnc(C(=O)NC(C)C(=O)OC(C)C2CCC(C(C)(C)C)CC2)c1O (mixture of isomers) [Compound 176] | 0% | 0% | 57% | 89% | 14% | 99% | 0% | – | – | – | – | – | –
6 | COc1ccnc(C(=O)N[C@@H](C)C(=O)OC(C)c2ccc(C(C)C)cc2)c1OC(C)=O (some centres unmarked) [Compound 117] | 0% | 0% | 94% | 100% | 71% | 100% | 0% | – | – | – | – | – | –
7 | COc1ccnc(C(=O)N[C@@H](C)C(=O)OC(C)c2cccc(-c3ccccc3)c2)c1O (single isomer, unassigned) [Compound 4] | 31% | 0% | 28% | 41% | 56% | 99% | 0% | – | – | – | – | – | –
8 | COc1ccnc(C(=O)NC(C)C(=O)OC(C)C2CCC(C(F)(F)F)CC2)c1OC(C)=O (mixture of isomers) [Compound 180] | 0% | 0% | 95% | 99% | 51% | 100% | 26% | – | – | – | – | – | –
9 | CCC(OC(=O)[C@H](C)NC(=O)c1nccc(OC)c1OCOC(C)=O)c1ccc(C2CCCCC2)cc1 (single isomer, unassigned) [Compound 135] | 0% | 86% | 81% | 98% | 29% | 100% | 0% | – | – | – | – | – | –
10 | COc1ccnc(C(=O)N[C@@H](C)C(=O)OC(C)C2CCCc3ccccc32)c1O (single isomer, unassigned) [Compound 183] | 0% | 0% | 98% | 99% | 44% | 100% | 0% | – | – | – | – | – | –
11 | COc1ccnc(C(=O)NC(C)C(=O)OC(C)C2CCC(C)(C)CC2)c1O (mixture of isomers) [Compound 173] | 0% | 0% | 66% | 98% | 8% | 100% | 0% | – | – | – | – | – | –
12 | COc1ccnc(C(=O)N[C@@H](C)C(=O)O[C@@H](C)C2CCCCC2)c1OC(C)=O [Compound 87, N-[[3-(acetyloxy)-4-methoxy-2-pyridinyl]carbonyl]-L-alanine (1S)-1-cyclohexylethyl ester] | – | – | – | – | – | – | – | 0% | 0% | 95% | 21% | 100% | 47%
13 | COc1ccnc(C(=O)NC(C)C(=O)OC(C)C2CCC(C(F)(F)F)CC2)c1O (mixture of isomers) [Compound 179] | 0% | – | 99% | 100% | 82% | 100% | 0% | – | – | – | – | – | –
14 | COc1ccnc(C(=O)N[C@@H](C)C(=O)OC(C)C2CCCCC2)c1OC(C)=O (single isomer, unassigned) [Compound 88] | 0% | 0% | 58% | – | 43% | 99% | 0% | – | – | – | – | – | –
15 | COc1ccnc(C(=O)N[C@@H](C)C(=O)OC(C)c2ccc(C3CCCCC3)cc2)c1OC(C)=O (single isomer, unassigned) [Compound 86] | 0% | 0% | 65% | – | 24% | 73% | 0% | – | – | – | – | – | –
